Reference: US10597388B2, “Pyridazinone herbicides” (FMC CORPORATION, priority 2014, dated 2020)

Experiments:
Format in all cases: in vivo
[1] = test system: galium (catchweed bedstraw, Galium aparine); assay: Test C greenhouse herbicide test, pre- and postemergence
How it was run: (§1)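 Each species was treated both before emergence, in a loam–sand soil mix, and after emergence, as 1- to 4-leaf seedlings in peat-based potting medium. Plants stayed in the greenhouse 13 to 15 d, then were scored from 0 (no effect) to 100 (complete control) relative to controls.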

[2] = test system: nutsedge, yellow (yellow nutsedge, Cyperus esculentus); assay: as above
How it was run: as §1

[3] = test system: blackgrass (Alopecurus myosuroides); assay: as above
How it was run: as §1

[4] = test system: pigweed (Amaranthus retroflexus); assay: as above
How it was run: as §1

[5] = test system: barnyardgrass (Echinochloa crus-galli); assay: as above
How it was run: as §1

[6] = test system: ryegrass, Italian (Italian ryegrass, Lolium multiflorum); assay: as above
How it was run: as §1

[7] = test system: velvetleaf (Abutilon theophrasti); assay: as above
How it was run: as §1

[8] = test system: ragweed (common ragweed, Ambrosia elatior); assay: as above
How it was run: as §1

[9] = test system: soybean (Glycine max); assay: as above
How it was run: as §1

[10] = test system: galium (catchweed bedstraw, Galium aparine); assay: Test A greenhouse herbicide test, postemergence
How it was run: (§2)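 Greenhouse postemergence test: formulated chemicals sprayed on one- to two-leaf plants (2 to 10 cm), grown in loam soil blended with sand. Injury assessed visually about 10 d later against untreated controls, scored 0 (no effect) to 100 (complete control).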

[11] = test system: blackgrass (Alopecurus myosuroides); assay: Test A greenhouse herbicide test, postemergence
How it was run: as §2

[12] = test system: kochia (Kochia scoparia); assay: Test C greenhouse herbicide test, postemergence
How it was run: (§3)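 Seedlings are raised in pots of peat moss–vermiculite medium with starter nutrients, then receive postemergence test chemical at the 1- to 4-leaf stage. They are kept in the greenhouse 13 to 15 d and scored visually versus controls, 0 meaning no effect and 100 complete control.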

[13] = test system: oat, wild (wild oat, Avena fatua); assay: Test C greenhouse herbicide test, postemergence
How it was run: as §3

[14] = test system: chickweed (common chickweed, Stellaria media); assay: Test C greenhouse herbicide test, postemergence
How it was run: as §3

[15] = Postemergence, 31 g ai/ha, 0 to 100 scale (0 no effect, 100 complete control)
[16] = Postemergence, 125 g ai/ha, scale 0 to 100, 0 is no effect, 100 is complete control
[17] = Postemergence, 250 g ai/ha, scale 0 to 100, 0 no effect, 100 complete control, 13 to 15 d
[18] = postemergence, 62 g ai/ha, scale 0 to 100, 0 no effect, 100 complete control
[19] = 125 g ai/ha, visual rating after approx. 10 d, 0 to 100 scale (0 no effect, 100 complete control)
[20] = 500 g ai/ha, 0 to 100 scale, 0 is no effect, 100 is complete control
[21] = Postemergence, 31 g ai/ha, scale 0 to 100 (0 no effect, 100 complete control)
[22] = Postemergence, 62 g ai/ha, 0 to 100 scale (0 no effect, 100 complete control)
[23] = postemergence, 125 g ai/ha, scale 0 to 100, 0 no effect, 100 complete control
[24] = 125 g ai/ha, 0 to 100 scale where 0 is no effect and 100 is complete control
[25] = 500 g ai/ha, visual rating after approx. 10 d, 0 to 100 scale (0 no effect, 100 complete control)

SMILES: Cc1ccc2sc(C)c(-c3c(OC(=O)C(C)(C)C)c(C)nn(C)c3=O)c2c1 [Compound 26]
- Galium plant response rating [1, 15]: 90
- Plant response rating, Galium [1, 16]: 95
- Plant response rating, Galium [1, 17]: 95
- Galium plant response rating [1, 18]: 95
- Nutsedge, Yellow plant response rating [2, 15]: 5
- Plant response rating, Nutsedge, Yellow [2, 16]: 20
- Plant response rating, Nutsedge, Yellow [2, 17]: 25
- Nutsedge, Yellow plant response rating [2, 18]: 10
- Blackgrass plant response rating [3, 15]: 50
- Plant response rating, Blackgrass [3, 16]: 60
- Plant response rating, Blackgrass [3, 17]: 75
- Blackgrass plant response rating [3, 18]: 55
- Pigweed plant response rating [4, 15]: 75
- Plant response rating, Pigweed [4, 16]: 98
- Plant response rating, Pigweed [4, 17]: 95
- Pigweed plant response rating [4, 18]: 85
- Barnyardgrass plant response rating [5, 15]: 20
- Plant response rating, Barnyardgrass [5, 16]: 30
- Plant response rating, Barnyardgrass [5, 17]: 35
- Barnyardgrass plant response rating [5, 18]: 25
- Ryegrass, Italian plant response rating [6, 15]: 85
- Plant response rating, Ryegrass, Italian [6, 16]: 90
- Plant response rating, Ryegrass, Italian [6, 17]: 90
- Ryegrass, Italian plant response rating [6, 18]: 90
- Velvetleaf plant response rating [7, 15]: 5
- Plant response rating, Velvetleaf [7, 16]: 60
- Plant response rating, Velvetleaf [7, 17]: 70
- Velvetleaf plant response rating [7, 18]: 30
- Ragweed plant response rating [8, 15]: 15
- Plant response rating, Ragweed [8, 16]: 85
- Plant response rating, Ragweed [8, 17]: 90
- Ragweed plant response rating [8, 18]: 70
- Soybean plant response rating [9, 15]: 5
- Plant response rating, Soybean [9, 16]: 10
- Plant response rating, Soybean [9, 17]: 10
- Soybean plant response rating [9, 18]: 5
- Plant response rating, Galium [10, 19]: 70
- Galium plant response rating [10, 20]: 90
- Plant response rating, Blackgrass [11, 19]: 30
- Blackgrass plant response rating [11, 20]: 70
- Kochia plant response rating [12, 15]: 80
- Plant response rating, Kochia [12, 16]: 90
- Plant response rating, Kochia [12, 17]: 100
- Kochia plant response rating [12, 18]: 70
- Oat, Wild plant response rating [13, 15]: 60
- Plant response rating, Oat, Wild [13, 16]: 95
- Plant response rating, Oat, Wild [13, 17]: 90
- Oat, Wild plant response rating [13, 18]: 80
- Chickweed plant response rating [14, 15]: 95
- Plant response rating, Chickweed [14, 16]: 100
- Plant response rating, Chickweed [14, 17]: 100
- Chickweed plant response rating [14, 18]: 95

SMILES: COC(=O)Oc1c(C)nn(C)c(=O)c1-c1ccc(F)c2ccccc12 [Compound 130]
- Plant response rating, Galium [1, 21]: 95
- Galium plant response rating [1, 22]: 95
- Plant response rating, Galium [1, 17]: 98
- Galium plant response rating [1, 23]: 95
- Plant response rating, Nutsedge, Yellow [2, 21]: 55
- Nutsedge, Yellow plant response rating [2, 22]: 75
- Plant response rating, Nutsedge, Yellow [2, 17]: 85
- Nutsedge, Yellow plant response rating [2, 23]: 80
- Plant response rating, Blackgrass [3, 21]: 30
- Blackgrass plant response rating [3, 22]: 35
- Plant response rating, Blackgrass [3, 17]: 60
- Blackgrass plant response rating [3, 23]: 55
- Plant response rating, Pigweed [4, 21]: 50
- Pigweed plant response rating [4, 22]: 70
- Plant response rating, Pigweed [4, 17]: 90
- Pigweed plant response rating [4, 23]: 90
- Plant response rating, Barnyardgrass [5, 21]: 30
- Barnyardgrass plant response rating [5, 22]: 30
- Plant response rating, Barnyardgrass [5, 16]: 35
- Plant response rating, Barnyardgrass [5, 17]: 55
- Plant response rating, Ryegrass, Italian [6, 21]: 90
- Ryegrass, Italian plant response rating [6, 22]: 90
- Plant response rating, Ryegrass, Italian [6, 17]: 95
- Ryegrass, Italian plant response rating [6, 23]: 95
- Plant response rating, Velvetleaf [7, 21]: 75
- Velvetleaf plant response rating [7, 22]: 70
- Plant response rating, Velvetleaf [7, 17]: 98
- Velvetleaf plant response rating [7, 23]: 98
- Plant response rating, Ragweed [8, 21]: 85
- Ragweed plant response rating [8, 22]: 90
- Plant response rating, Ragweed [8, 17]: 98
- Ragweed plant response rating [8, 23]: 98
- Plant response rating, Soybean [9, 21]: 10
- Soybean plant response rating [9, 22]: 15
- Plant response rating, Soybean [9, 17]: 50
- Soybean plant response rating [9, 23]: 25
- Plant response rating, Galium [10, 24]: 100
- Plant response rating, Galium [10, 25]: 100
- Plant response rating, Blackgrass [11, 24]: 60
- Plant response rating, Blackgrass [11, 25]: 70
- Plant response rating, Kochia [12, 21]: 95
- Kochia plant response rating [12, 22]: 95
- Plant response rating, Kochia [12, 17]: 100
- Kochia plant response rating [12, 23]: 100
- Plant response rating, Oat, Wild [13, 21]: 60
- Oat, Wild plant response rating [13, 22]: 80
- Plant response rating, Oat, Wild [13, 17]: 95
- Oat, Wild plant response rating [13, 23]: 85
- Plant response rating, Chickweed [14, 21]: 90
- Chickweed plant response rating [14, 22]: 95
- Plant response rating, Chickweed [14, 17]: 100
- Chickweed plant response rating [14, 23]: 98
